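Results reflect a 48-hour exposure of cells in 96-well plates to compound at five concentrations. TGI: total growth inhibition.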
Legend:
Assay in all cases: NCI tumour cell line growth inhibition, 48 h
[1] = system: SK-MEL-2 melanoma
[2] = system: MALME-3M melanoma
[3] = system: LXFL 529 NSCLC
[4] = system: HCT-15 colon
[5] = system: KM20L2 colon
[6] = system: HOP-18 NSCLC
[7] = system: SN12C renal
[8] = system: CAKI-1 renal
[9] = system: HL-60(TB) leukemia
[10] = system: SNB-19 CNS
[11] = system: RPMI-8226 leukemia
[12] = system: DMS 114 small cell lung
[13] = system: SK-MEL-28 melanoma
[14] = system: SW-620 colon
[15] = system: HCC-2998 colon
[16] = system: DLD-1 colon
[17] = system: HOP-62 NSCLC
[18] = system: HOP-92 NSCLC
[19] = system: M19-MEL melanoma
[20] = system: ACHN renal
[21] = system: TK-10 renal
[22] = system: UACC-257 melanoma
[23] = system: SK-OV-3 ovarian
[24] = system: SF-268 CNS
[25] = system: M14 melanoma
[26] = system: OVCAR-8 ovarian
[27] = system: U251 CNS
[28] = system: 786-0 renal
[29] = system: CCRF-CEM leukemia
[30] = system: NCI-H460 lung
[31] = system: NCI-H522 lung
[32] = system: MOLT-4 leukemia
[33] = system: HT29 colon
[34] = system: SF-539 CNS
[35] = system: EKVX NSCLC
[36] = system: SNB-78 CNS
[37] = system: OVCAR-4 ovarian
[38] = system: OVCAR-3 ovarian
[39] = system: NCI-H23 lung
[40] = system: LOX IMVI melanoma
[41] = system: K-562 leukemia
[42] = system: KM12 colon
[43] = system: UO-31 renal
[44] = system: DMS 273 small cell lung
[45] = system: XF 498 CNS
[46] = system: RXF 393 renal
[47] = system: SF-295 CNS
[48] = system: SK-MEL-5 melanoma
[49] = system: RXF-631 renal
[50] = system: UACC-62 melanoma
[51] = system: COLO 205 colon
[52] = system: NCI-H226 lung
[53] = system: OVCAR-5 ovarian
[54] = system: SNB-75 CNS
[55] = system: HCT-116 colon
[56] = system: A549 NSCLC
[57] = system: A498 renal
[58] = system: IGROV1 ovarian
[59] = system: SR leukemia

COc1cc(/C=C2\Cc3ccccc3C2=O)cc(OC)c1OC
TGI [1]: > 100 µM | TGI [2]: > 100 µM | TGI [3]: > 100 µM | TGI [4]: > 100 µM | TGI [5]: > 100 µM | TGI [6]: > 100 µM | TGI [7]: > 100 µM | TGI [8]: > 100 µM | TGI [9]: > 100 µM | TGI [10]: > 100 µM | TGI [11]: > 100 µM | TGI [12]: > 100 µM | TGI [13]: > 100 µM | TGI [14]: > 100 µM | TGI [15]: > 100 µM | TGI [16]: > 100 µM | TGI [17]: > 100 µM | TGI [18]: > 100 µM | TGI [19]: > 100 µM | TGI [20]: > 100 µM | TGI [21]: > 100 µM | TGI [22]: > 100 µM | TGI [23]: > 100 µM | TGI [24]: > 100 µM | TGI [25]: > 100 µM | TGI [26]: > 100 µM | TGI [27]: > 100 µM | TGI [28]: > 100 µM | TGI [29]: > 100 µM | TGI [30]: > 100 µM | TGI [31]: > 100 µM | TGI [32]: > 100 µM | TGI [33]: > 100 µM | TGI [34]: > 100 µM | TGI [35]: > 100 µM | TGI [36]: > 100 µM | TGI [37]: > 100 µM | TGI [38]: > 100 µM | TGI [39]: > 100 µM | TGI [40]: > 100 µM | TGI [41]: > 100 µM | TGI [42]: > 100 µM | TGI [43]: > 100 µM | TGI [44]: > 100 µM | TGI [45]: > 100 µM | TGI [46]: > 100 µM | TGI [47]: > 100 µM | TGI [48]: > 100 µM | TGI [49]: > 100 µM | TGI [50]: > 100 µM | TGI [51]: > 100 µM | TGI [52]: > 100 µM | TGI [53]: > 100 µM | TGI [54]: > 100 µM | TGI [55]: > 100 µM | TGI [56]: > 100 µM

COc1ccc2c(c1)C=C(C(C)(C)C)NS2(=O)=O
TGI [1]: > 100 µM | TGI [2]: > 100 µM | TGI [3]: > 100 µM | TGI [4]: > 100 µM | TGI [5]: > 100 µM | TGI [6]: > 100 µM | TGI [7]: > 100 µM | TGI [8]: > 100 µM | TGI [9]: > 100 µM | TGI [10]: > 100 µM | TGI [12]: > 100 µM | TGI [13]: > 100 µM | TGI [14]: > 100 µM | TGI [15]: > 100 µM | TGI [16]: > 100 µM | TGI [17]: > 100 µM | TGI [18]: > 100 µM | TGI [19]: > 100 µM | TGI [20]: > 100 µM | TGI [21]: > 100 µM | TGI [22]: > 100 µM | TGI [23]: > 100 µM | TGI [57]: > 100 µM | TGI [24]: > 100 µM | TGI [25]: > 100 µM | TGI [26]: > 100 µM | TGI [27]: > 100 µM | TGI [28]: > 100 µM | TGI [29]: > 100 µM | TGI [30]: > 100 µM | TGI [31]: > 100 µM | TGI [32]: > 100 µM | TGI [33]: > 100 µM | TGI [34]: > 100 µM | TGI [35]: > 100 µM | TGI [36]: > 100 µM | TGI [37]: > 100 µM | TGI [38]: > 100 µM | TGI [39]: > 100 µM | TGI [40]: > 100 µM | TGI [41]: > 100 µM | TGI [42]: > 100 µM | TGI [43]: > 100 µM | TGI [44]: > 100 µM | TGI [46]: > 100 µM | TGI [47]: > 100 µM | TGI [48]: > 100 µM | TGI [58]: > 100 µM | TGI [49]: > 100 µM | TGI [50]: > 100 µM | TGI [51]: > 100 µM | TGI [59]: > 100 µM | TGI [52]: > 100 µM | TGI [53]: > 100 µM | TGI [54]: > 100 µM | TGI [55]: > 100 µM | TGI [56]: > 100 µM

COc1ccc(NS(=O)(=O)c2ccc(N=C3C=C(Nc4ccc(S(=O)(=O)Nc5ccc(OC)nn5)cc4)C(=O)c4ccccc43)cc2)nn1
TGI [1]: 33.2 µM | TGI [2]: 33.1 µM | TGI [3]: 57.9 µM | TGI [4]: 32.4 µM | TGI [5]: 31.8 µM | TGI [6]: 29.7 µM | TGI [7]: 38.6 µM | TGI [8]: 40.7 µM | TGI [9]: > 100 µM | TGI [10]: 33.4 µM | TGI [11]: > 100 µM | TGI [12]: 66.7 µM | TGI [13]: 31.4 µM | TGI [14]: 32.9 µM | TGI [15]: 34.1 µM | TGI [16]: 36.9 µM | TGI [18]: 88.8 µM | TGI [19]: 30.6 µM | TGI [20]: 37.8 µM | TGI [21]: 40 µM | TGI [22]: 35.8 µM | TGI [23]: 33.1 µM | TGI [57]: 29 µM | TGI [24]: 52.9 µM | TGI [25]: 31.3 µM | TGI [26]: 34.8 µM | TGI [27]: 33.2 µM | TGI [28]: 31.7 µM | TGI [29]: > 100 µM | TGI [30]: 31.5 µM | TGI [31]: 31.8 µM | TGI [32]: > 100 µM | TGI [33]: 36.2 µM | TGI [34]: 31.6 µM | TGI [35]: 63.1 µM | TGI [36]: > 100 µM | TGI [37]: 50.4 µM | TGI [38]: 44.8 µM | TGI [39]: 29.7 µM | TGI [40]: 30.4 µM | TGI [41]: > 100 µM | TGI [42]: 30.5 µM | TGI [43]: 37.8 µM | TGI [44]: 28.4 µM | TGI [45]: 54.3 µM | TGI [46]: 32.8 µM | TGI [47]: 32.1 µM | TGI [48]: 35 µM | TGI [58]: 45.7 µM | TGI [50]: 32.6 µM | TGI [51]: 32.5 µM | TGI [59]: > 100 µM | TGI [52]: 34.2 µM | TGI [53]: 34.1 µM | TGI [54]: 35.1 µM | TGI [55]: 32 µM | TGI [56]: 32.2 µM

Source: PubChem BioAssay (NCI)
